# Tested on: 439559-082-T-J2-PDC spheroids viability
# Test: Anticancer human tumor 439559-082-T-J2-PDC patient-derived colon adenocarcinoma cell line growth inhibition [GQUAD]
# Conditions: for IC50: curve of first compound; for viability, T/C: stronger effect = lower value
# Procedure, shortened: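 Multi-cell-type spheroids of tumor cells with HUVEC and mesenchymal stem cells, treated with drug combinations. Concentrations descend in half-log steps from near clinical Cmax, or from 10 microM where Cmax is unknown; viability read-out.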
# [1] = second compound 0.0316 µM, first compound 0.000999 µM
# [2] = second compound 0.0316 µM, first compound 0.00316 µM
# [3] = second compound 0.0316 µM, first compound 0.00999 µM
# [4] = second compound 0.0316 µM, first compound 0.0316 µM
# [5] = second compound 0.0316 µM, first compound 0.0999 µM
# [6] = second compound 0.0316 µM, first compound 0.316 µM
# [7] = second compound 0.1 µM, first compound 0.000999 µM
# [8] = second compound 0.1 µM, first compound 0.00316 µM
# [9] = second compound 0.1 µM, first compound 0.00999 µM
# [10] = second compound 0.1 µM, first compound 0.0316 µM
# [11] = second compound 0.1 µM, first compound 0.0999 µM
# [12] = second compound 0.1 µM, first compound 0.316 µM
# [13] = second compound 0.316 µM, first compound 0.000999 µM
# [14] = second compound 0.316 µM, first compound 0.00316 µM
# [15] = second compound 0.316 µM, first compound 0.00999 µM
# [16] = second compound 0.316 µM, first compound 0.0316 µM
# [17] = second compound 0.316 µM, first compound 0.0999 µM
# [18] = second compound 0.316 µM, first compound 0.316 µM
# [19] = second compound 1 µM, first compound 0.000999 µM
# [20] = second compound 1 µM, first compound 0.00316 µM
# [21] = second compound 1 µM, first compound 0.00999 µM
# [22] = second compound 1 µM, first compound 0.0316 µM
# [23] = second compound 1 µM, first compound 0.0999 µM
# [24] = second compound 1 µM, first compound 0.316 µM
# [25] = second compound 3.16 µM, first compound 0.000999 µM
# [26] = second compound 3.16 µM, first compound 0.00316 µM
# [27] = second compound 3.16 µM, first compound 0.00999 µM
# [28] = second compound 3.16 µM, first compound 0.0316 µM
# [29] = second compound 3.16 µM, first compound 0.0999 µM
# [30] = second compound 3.16 µM, first compound 0.316 µM
# [31] = second compound 10 µM, first compound 0.000999 µM
# [32] = second compound 10 µM, first compound 0.00316 µM
# [33] = second compound 10 µM, first compound 0.00999 µM
# [34] = second compound 10 µM, first compound 0.0316 µM
# [35] = second compound 10 µM, first compound 0.0999 µM
# [36] = second compound 10 µM, first compound 0.316 µM
# [37] = second compound 0.0316 µM, first compound 0.1 µM
# [38] = second compound 0.0316 µM, first compound 1 µM
# [39] = second compound 0.0316 µM, first compound 3.16 µM
# [40] = second compound 0.0316 µM, first compound 10 µM
# [41] = second compound 0.1 µM, first compound 0.1 µM
# [42] = second compound 0.1 µM, first compound 1 µM
# [43] = second compound 0.1 µM, first compound 3.16 µM
# [44] = second compound 0.1 µM, first compound 10 µM
# [45] = second compound 0.316 µM, first compound 0.1 µM
# [46] = second compound 0.316 µM, first compound 1 µM
# [47] = second compound 0.316 µM, first compound 3.16 µM
# [48] = second compound 0.316 µM, first compound 10 µM
# [49] = second compound 1 µM, first compound 0.1 µM
# [50] = second compound 1 µM, first compound 1 µM
# [51] = second compound 1 µM, first compound 3.16 µM
# [52] = second compound 1 µM, first compound 10 µM
# [53] = second compound 3.16 µM, first compound 0.1 µM
# [54] = second compound 3.16 µM, first compound 1 µM
# [55] = second compound 3.16 µM, first compound 3.16 µM
# [56] = second compound 3.16 µM, first compound 10 µM
# [57] = second compound 10 µM, first compound 0.1 µM
# [58] = second compound 10 µM, first compound 1 µM
# [59] = second compound 10 µM, first compound 3.16 µM
# [60] = second compound 10 µM, first compound 10 µM
# 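Note: spheroids exposed to the agents for 7 days before readout.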
# 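Throughout, for viability, T/C: percent of luminescence signal in DMSO vehicle wells taken as 100% viability.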
structure (smiles),measurement,setting,value
CC[C@@]1(O)C(=O)OCc2c1cc1n(c2=O)Cc2cc3c(CN(C)C)c(O)ccc3nc2-1 + Cc1[nH]c2ccc(F)cc2c1-c1nc2c3cccnc3c3ncccc3c2[nH]1,IC50,second compound 0.0316 µM,> 0.316 µM
same,IC50,second compound 0.1 µM,> 0.316 µM
same,IC50,second compound 0.316 µM,> 0.316 µM
same,IC50,second compound 1 µM,> 0.316 µM
same,IC50,second compound 3.16 µM,> 0.316 µM
same,IC50,second compound 10 µM,> 0.316 µM
same,"viability, T/C",[1],99.4%
same,"viability, T/C",[2],109%
same,"viability, T/C",[3],94.5%
same,"viability, T/C",[4],99.7%
same,"viability, T/C",[5],96.3%
same,"viability, T/C",[6],82.4%
same,"viability, T/C",[7],101%
same,"viability, T/C",[8],102%
same,"viability, T/C",[9],99.5%
same,"viability, T/C",[10],96.2%
same,"viability, T/C",[11],103%
same,"viability, T/C",[12],83%
same,"viability, T/C",[13],98.1%
same,"viability, T/C",[14],92.1%
same,"viability, T/C",[15],89.1%
same,"viability, T/C",[16],99.2%
same,"viability, T/C",[17],90.5%
same,"viability, T/C",[18],83.3%
same,"viability, T/C",[19],94%
same,"viability, T/C",[20],101%
same,"viability, T/C",[21],98.6%
same,"viability, T/C",[22],84.9%
same,"viability, T/C",[23],93.3%
same,"viability, T/C",[24],83.6%
same,"viability, T/C",[25],81.8%
same,"viability, T/C",[26],81.2%
same,"viability, T/C",[27],88.9%
same,"viability, T/C",[28],78.2%
same,"viability, T/C",[29],86.2%
same,"viability, T/C",[30],73.5%
same,"viability, T/C",[31],86.4%
same,"viability, T/C",[32],78.7%
same,"viability, T/C",[33],75.3%
same,"viability, T/C",[34],76%
same,"viability, T/C",[35],90.1%
same,"viability, T/C",[36],56.9%
COc1cccc2c1C(=O)c1c(O)c3c(c(O)c1C2=O)CC(O)(C(=O)CO)CC3OC1CC(N)C(O)C(C)O1 (stereo not drawn) + Cc1[nH]c2ccc(F)cc2c1-c1nc2c3cccnc3c3ncccc3c2[nH]1,IC50,second compound 0.0316 µM,> 10 µM
same,IC50,second compound 0.1 µM,> 10 µM
same,IC50,second compound 0.316 µM,> 10 µM
same,IC50,second compound 1 µM,> 10 µM
same,IC50,second compound 3.16 µM,9.82 µM
same,IC50,second compound 10 µM,5.25 µM
same,"viability, T/C",[4],98.5%
same,"viability, T/C",[37],100%
same,"viability, T/C",[6],96.2%
same,"viability, T/C",[38],82.1%
same,"viability, T/C",[39],61.5%
same,"viability, T/C",[40],54.2%
same,"viability, T/C",[10],107%
same,"viability, T/C",[41],99%
same,"viability, T/C",[12],89.1%
same,"viability, T/C",[42],87.5%
same,"viability, T/C",[43],69.5%
same,"viability, T/C",[44],54.1%
same,"viability, T/C",[16],98.9%
same,"viability, T/C",[45],95.3%
same,"viability, T/C",[18],85.9%
same,"viability, T/C",[46],89.2%
same,"viability, T/C",[47],62.7%
same,"viability, T/C",[48],50.8%
same,"viability, T/C",[22],87.9%
same,"viability, T/C",[49],87%
same,"viability, T/C",[24],82.1%
same,"viability, T/C",[50],83.2%
same,"viability, T/C",[51],67.3%
same,"viability, T/C",[52],56.2%
same,"viability, T/C",[28],80.4%
same,"viability, T/C",[53],75%
same,"viability, T/C",[30],85.2%
same,"viability, T/C",[54],64.2%
same,"viability, T/C",[55],63.3%
same,"viability, T/C",[56],49.7%
same,"viability, T/C",[34],92.3%
same,"viability, T/C",[57],80.3%
same,"viability, T/C",[36],69.8%
same,"viability, T/C",[58],68.2%
same,"viability, T/C",[59],53.2%
same,"viability, T/C",[60],43.9%
Cc1cccc(N(C)C(=O)C2C(O)CCN2c2nc(C)cc(C(F)(F)F)c2C#N)c1 (stereo not drawn) + Cc1[nH]c2ccc(F)cc2c1-c1nc2c3cccnc3c3ncccc3c2[nH]1,IC50,second compound 0.0316 µM,> 10 µM
same,IC50,second compound 0.1 µM,> 10 µM
same,IC50,second compound 0.316 µM,> 10 µM
same,IC50,second compound 1 µM,> 10 µM
same,IC50,second compound 3.16 µM,> 10 µM
same,IC50,second compound 10 µM,> 10 µM
same,"viability, T/C",[4],98.7%
same,"viability, T/C",[37],106%
same,"viability, T/C",[6],99.8%
same,"viability, T/C",[38],103%
same,"viability, T/C",[39],92.8%
same,"viability, T/C",[40],95.9%
same,"viability, T/C",[10],106%
same,"viability, T/C",[41],91.6%
same,"viability, T/C",[12],99.8%
same,"viability, T/C",[42],96.3%
same,"viability, T/C",[43],100%
same,"viability, T/C",[44],92.6%
same,"viability, T/C",[16],98.6%
same,"viability, T/C",[45],101%
same,"viability, T/C",[18],92.7%
same,"viability, T/C",[46],108%
same,"viability, T/C",[47],96.2%
same,"viability, T/C",[48],83.3%
same,"viability, T/C",[22],96.2%
same,"viability, T/C",[49],91.2%
same,"viability, T/C",[24],87.4%
same,"viability, T/C",[50],100%
same,"viability, T/C",[51],88.9%
same,"viability, T/C",[52],88.1%
same,"viability, T/C",[28],78.6%
same,"viability, T/C",[53],77.7%
same,"viability, T/C",[30],93.1%
same,"viability, T/C",[54],88.3%
same,"viability, T/C",[55],84.7%
same,"viability, T/C",[56],77%
same,"viability, T/C",[34],85.5%
same,"viability, T/C",[57],83.6%
same,"viability, T/C",[36],87.5%
same,"viability, T/C",[58],84.9%
same,"viability, T/C",[59],87%
same,"viability, T/C",[60],78.5%
Cn1ncnc1[C@H]1c2n[nH]c(=O)c3cc(F)cc(c23)N[C@@H]1c1ccc(F)cc1 + Cc1[nH]c2ccc(F)cc2c1-c1nc2c3cccnc3c3ncccc3c2[nH]1,IC50,second compound 0.0316 µM,> 0.316 µM
same,IC50,second compound 0.1 µM,> 0.316 µM
same,IC50,second compound 0.316 µM,> 0.316 µM
same,IC50,second compound 1 µM,> 0.316 µM
same,IC50,second compound 3.16 µM,> 0.316 µM
same,IC50,second compound 10 µM,> 0.316 µM
same,"viability, T/C",[1],105%
same,"viability, T/C",[2],93.7%
same,"viability, T/C",[3],97.2%
same,"viability, T/C",[4],89.4%
same,"viability, T/C",[5],90.4%
same,"viability, T/C",[6],92.1%
same,"viability, T/C",[7],103%
same,"viability, T/C",[8],105%
same,"viability, T/C",[9],93.6%
same,"viability, T/C",[10],93.5%
same,"viability, T/C",[11],90%
same,"viability, T/C",[12],88.9%
same,"viability, T/C",[13],113%
same,"viability, T/C",[14],99%
same,"viability, T/C",[15],99.6%
same,"viability, T/C",[16],93.4%
same,"viability, T/C",[17],97.2%
same,"viability, T/C",[18],85.8%
same,"viability, T/C",[19],87.3%
same,"viability, T/C",[20],98.5%
same,"viability, T/C",[21],92%
same,"viability, T/C",[22],94.1%
same,"viability, T/C",[23],99.2%
same,"viability, T/C",[24],84%
same,"viability, T/C",[25],79.6%
same,"viability, T/C",[26],87.5%
same,"viability, T/C",[27],77.3%
same,"viability, T/C",[28],85.7%
same,"viability, T/C",[29],81.8%
same,"viability, T/C",[30],76.2%
same,"viability, T/C",[31],85.7%
same,"viability, T/C",[32],86.7%
same,"viability, T/C",[33],72.3%
same,"viability, T/C",[34],85.8%
same,"viability, T/C",[35],82%
same,"viability, T/C",[36],61.8%
